Experimental data from patent US6737507B2, “Antiangiogenic peptides and compositions thereof” (Children's Medical Center Corporation, priority 1999, dated 2004).
Values belong to the molecule of their own block, whether it stands above or below them.

Assays:
[1] = test system: capillary tube formation; conditions: in vitro; cited from earlier work
[2] = biological target: T1, MMP-1 (Homo sapiens, UniProt P03956); assay: MMP-1 activity assay; assay type: biochemical; conditions: FIG. 2
T1 sequence (P03956 100-469): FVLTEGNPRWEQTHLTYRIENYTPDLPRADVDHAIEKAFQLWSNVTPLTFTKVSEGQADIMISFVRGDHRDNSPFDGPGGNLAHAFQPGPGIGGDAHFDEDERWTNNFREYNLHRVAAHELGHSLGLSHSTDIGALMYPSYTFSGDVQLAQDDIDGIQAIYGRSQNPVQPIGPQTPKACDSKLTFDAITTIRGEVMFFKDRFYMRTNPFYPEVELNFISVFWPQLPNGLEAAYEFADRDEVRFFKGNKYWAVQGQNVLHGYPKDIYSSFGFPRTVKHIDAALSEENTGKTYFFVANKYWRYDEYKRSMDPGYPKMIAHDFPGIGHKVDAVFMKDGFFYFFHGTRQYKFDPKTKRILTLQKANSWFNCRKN
Source text: FIG. 2: MMP-1 activity assay. The purified protein inhibited bFGF-stimulated EC proliferation in the bFGF stimulated EC proliferation assay (Moses, et al., Science, 248:1408-1410 (1990)) (FIG. 1) and inhibited neovascularization in vivo in the CAM assay.

[3] = test system: neovascularization; assay: CAM assay (chick chorioallantoic membrane), neovascularization in vivo
Source text: Assays for the ability to inhibit angiogenesis in vivo include the chick chorioallantoic membrane assay and mouse, rat or rabbit corneal pocket assays. See, Polverini et al., 1991, Methods Enzymol. 198:440-450. In corneal pocket assays, a tumor of choice is implanted into the cornea of the test animal in the form of a corneal pocket. The potential angiogenesis inhibitor is applied to the corneal pocket and the corneal pocket is routinely examined for neovascularization. The purified protein inhibited bFGF-stimulated EC proliferation in the bFGF stimulated EC proliferation assay (Moses, et al., Science, 248:1408-1410 (1990)) (FIG. 1) and inhibited neovascularization in vivo in the CAM assay.

[4] = test system: capillary endothelial cells (EC); assay: bFGF-stimulated EC proliferation assay; assay type: cell-based; conditions: FIG. 1
Source text: Inhibition of endothelial cell proliferation may be measured by calorimetric determination of cellular acid phosphatase activity or electronic cell counting. These methods provide a quick and sensitive screen for determining the number of endothelial cells in culture after treatment with the connective tissue growth factor protein, derivative, or analog of the invention, and an angiogenesis stimulating factor such as aFGF. The calorimetric determination of cellular acid phosphatase activity is described by Connolly et al., 1986, J. Anal. Biochem. J52:136-140. According to this method, capillary endothelial cells are treated with angiogenesis stimulating factors, such as aFGF, and a range of potential inhibitor concentrations. These samples are incubated to allow for growth, and then harvested, washed, lysed in a buffer containing a phosphatase substrate, and then incubated a second time. A basic solution is added to stop the reaction and color development is determined at […]. According to Connolly et al., a linear relationship is obtained between acid phosphatase activity and endothelial cell number up to 10,000 cells/sample. […] Percent inhibition is determined by comparing the cell number of samples exposed to stimulus with those exposed to both stimulus and inhibitor. […] Following incubation, the cells are harvested and the extent of thymidine incorporation is determined. […]

[5] = test system: endothelial cell; conditions: cited from earlier work
[6] = test system: microvascular cells; conditions: in vitro, amnion invasion assay; cited from earlier work
[7] = test system: MMP; assay: standard radiometric enzyme assay for MMP inhibition; assay type: biochemical
Method: After 24 hours, positive colonies were harvested, pooled and re-plated into minimal plates. Since multiple copies of the construct are reported to confer resistance to high levels of GF18 we screened for “jackpot” clones by replica plating in increasing doses of GF18, as high as 4 mg/ml. After four days, approximately five colonies containing multiple copies of the gene were screened for expression levels of TIMP-3 in 5 ml cultures. The two clones showing the highest expression, T3-3 His+Mut^s and T3-A His+Mut^s, were then used to inoculate 500 ml cultures, as was one clone containing pPIC9K vector alone as a control for background expression. Both T3-3 and T3-A produced a prominent protein band at app. […] Highly purified TIMP-3 was obtained by subsequent chromatography on a Progel-TSK G30000SWK HPLC column (Supelco) followed by SDS-PAGE and silver staining. […] Both T3-3 and T3-A were inhibitory when tested in the standard radiometric enzyme assay for MMP inhibition (Moses, M. A., et al., Science 248:1408-1410, (1990) and Moses, M. A., et al., J. Cell Biol. 119:475-482, (1992)).

MMP inhibition [7]: inhibitory
B1: T3-3: full length human TIMP-3 expressed by Pichia pastoris clone T3-3 (protein)
chain: CTCSPSHPQDAFCNSDIVIRAKVVGKKLVKEGPFGTLVYTIKQMKMYRGFTKMPHVQYIHTEASESLCGLKLEVNKYQYLLTGRVYDGKMYTGLCNFVERWDQLTLSQRKGLNYRYHLGCNCKIKSCYYLPCFVTSKNECLWTDMLSNFGYPGYQSKHYACIRQKGGYCSWYRGWAPPDKSIINATDP

MMP inhibition [7]: inhibitory
B2: T3-A: full length human TIMP-3 expressed by Pichia pastoris clone T3-A (protein)
chain: CTCSPSHPQDAFCNSDIVIRAKVVGKKLVKEGPFGTLVYTIKQMKMYRGFTKMPHVQYIHTEASESLCGLKLEVNKYQYLLTGRVYDGKMYTGLCNFVERWDQLTLSQRKGLNYRYHLGCNCKIKSCYYLPCFVTSKNECLWTDMLSNFGYPGYQSKHYACIRQKGGYCSWYRGWAPPDKSIINATDP

Further lines, the molecule ahead of its results:

Molecule: c1cnc2c(c1)ccc1cccnc12 [1,10-phenanthroline]
inhibition of capillary tube formation [1]: could inhibit

Molecule: CKITRCPMIPCYISSPDECLWMDWVTEKNINGHQAKFFACIKRSDGSCAWYRGA APPKQEFLDIEDP [purified protein]
inhibition of MMP-1 activity [2]: did not inhibit
inhibition of neovascularization in vivo [3]: inhibited
inhibition of bFGF-stimulated EC proliferation [4]: inhibited

Molecule: TIMP-1: Tissue Inhibitor of MetalloProteinase 1
inhibition of FGF-stimulated endothelial cell proliferation ([5]; FGF-stimulated): not
effect on growth of EC proliferation ([5]; other studies): stimulate
inhibition of migration of microvascular cells [6]: could inhibit
